Reference: patent US5447942A, “N-derivatives of (phenylethyl-β-ol) amine, a process for their preparation and pharamaceutical compositions containing the same” (Societe de Conseils de Recherches et d'Applications …, priority 1992, dated 1995)
Read-outs that look alike come from different tables or passages of the source.

Experiments:
[1] = target: β adrenoceptors; test: radioligand binding studies in lung membrane (Table A, binding affinity)
From the text: The results are summarised in Table A. Generally, the activity is better for the trans than the cis isomer.

[2] = system: acetylcholine induced bronchoconstriction; test: inhibition of acetylcholine induced bronchoconstriction, Konzett and Rossler method (Table B); format: in vivo, Male Hartley Guinea Pigs; settings: IV; for inhibition in vivo at 0.13 µmol/kg / inhibition in vivo at 0.42 µmol/kg / inhibition in vivo at 1.53 µmol/kg / inhibition in vivo at 3.6 µmol/kg / inhibition in vivo at 0.46 µmol/kg / inhibition in vivo at 1.5 µmol/kg / inhibition in vivo at 1.48 µmol/kg / inhibition in vivo at 0.47 µmol/kg / inhibition in vivo at 0.48 µmol/kg: Cavia porcellus
Protocol: Male Hartley Guinea Pigs (450-500 g) were anaesthetised with ethyl carbamate and prepared for recording bronchoconstriction according to Konzett and Rossler method (Naunym Schmiedebergers Arch. Exp. Path. Pharmakol (1940) 195, 71). To abolish spontaneous respiration, an injection IV of vecuronium bromide (2 mg/kg) was made. Bronchoconstriction was induced by IV injection of Acetylcholine and the animals received one dose of β agonist compound (IV) 5 minutes later.

[3] = 5 min, 0.13 μmol/kg, 5 mn, read-out: bronchoconstriction protection, score 5 mn
[4] = 0.25 h, 0.13 μmol/kg, 15 mn, read-out: bronchoconstriction protection, score 15 mn
[5] = 0.5 h, 0.13 μmol/kg, 30 mn, read-out: bronchoconstriction protection, score 30 mn
[6] = 5 min, 0.46 μmol/kg, 5 mn, read-out: bronchoconstriction protection, score 5 mn
[7] = 0.25 h, 0.46 μmol/kg, 15 mn, read-out: bronchoconstriction protection, score 15 mn
[8] = 0.5 h, 0.46 μmol/kg, 30 mn, read-out: bronchoconstriction protection, score 30 mn

For `COc1cc([C@H]2CC[C@H](CNCC(O)c3ccc(O)c(CO)c3)O2)cc(OC)c1OC` (relative stereo) [Example 2 (trans), 2-(3',4',5'-trimethoxyphenyl)-5-[N-[β-(3'-hydroxymethyl-4'-hydroxy-phenyl)-β-hydroxy-ethyl]-aminomethyl]-tetrahydrofuran], the Ki [1] was 80 nM, the “bronchoconstriction protection, duration of action” value (“bronchoconstriction protection” below) ([2]; 0.13 μmol/kg) was 30 mn and the “bronchoconstriction protection” value ([2]; 0.42 μmol/kg) was greater than 50 mn. It also gave an inhibition in vivo at 0.13 µmol/kg [2, 3] greater than 75%, an inhibition in vivo at 0.42 µmol/kg ([2]; 5 min, 0.42 μmol/kg, 5 mn, read-out: bronchoconstriction protection, score 5 mn) greater than 75% and an inhibition in vivo at 0.13 µmol/kg [2, 4] of 50 to 75%. For the same compound, the inhibition in vivo at 0.42 µmol/kg ([2]; 0.25 h, 0.42 μmol/kg, 15 mn, read-out: bronchoconstriction protection, score 15 mn) was greater than 75%, the inhibition in vivo at 0.13 µmol/kg [2, 5] was 20 to 50% and the inhibition in vivo at 0.42 µmol/kg ([2]; 0.5 h, 0.42 μmol/kg, 30 mn, read-out: bronchoconstriction protection, score 30 mn) was greater than 75%.
`COc1ccc([C@H]2CC[C@H](CNCC(O)c3ccc(O)c(CO)c3)O2)c(OC)c1OC` (relative stereo) [Example 3 (trans), 2-(2',3',4'-trimethoxyphenyl)-5-[N-[β-(3'-hydroxymethyl-4'-hydroxy-phenyl)-β-hydroxy-ethyl]-aminomethyl]-tetrahydrofuran] was tested, and the Ki [1] was 1600 nM, the “bronchoconstriction protection” value ([2]; 1.53 μmol/kg) was 5 mn and the “bronchoconstriction protection” value ([2]; 3.6 μmol/kg) was 30 mn. For the same compound, the inhibition in vivo at 1.53 µmol/kg ([2]; 5 min, 1.53 μmol/kg, 5 mn, read-out: bronchoconstriction protection, score 5 mn) was 20 to 50%, the inhibition in vivo at 3.6 µmol/kg ([2]; 5 min, 3.6 μmol/kg, 5 mn, read-out: bronchoconstriction protection, score 5 mn) was 50 to 75% and the inhibition in vivo at 1.53 µmol/kg ([2]; 0.25 h, 1.53 μmol/kg, 15 mn, read-out: bronchoconstriction protection, score 15 mn) was less than 20%. For the same compound, the inhibition in vivo at 3.6 µmol/kg ([2]; 0.25 h, 3.6 μmol/kg, 15 mn, read-out: bronchoconstriction protection, score 15 mn) was 20 to 50%, the inhibition in vivo at 1.53 µmol/kg ([2]; 0.5 h, 1.53 μmol/kg, 30 mn, read-out: bronchoconstriction protection, score 30 mn) was less than 20% and the inhibition in vivo at 3.6 µmol/kg ([2]; 0.5 h, 3.6 μmol/kg, 30 mn, read-out: bronchoconstriction protection, score 30 mn) was 20 to 50%.
For `OCc1cc(C(O)CNC[C@@H]2CC[C@H](c3ccccc3Cl)O2)ccc1O` (relative stereo) [Example 4 (cis), 2-(2'-chlorophenyl)-5-[N-[β-(3'-hydroxymethyl-4'-hydroxy-phenyl)-β-hydroxy-ethyl]-aminomethyl]-tetrahydrofuran], the Ki [1] was 347 nM, the “bronchoconstriction protection” value ([2]; 0.46 μmol/kg) was 10 mn and the “bronchoconstriction protection” value ([2]; 1.5 μmol/kg) was less than 40 mn. For the same compound, the inhibition in vivo at 0.46 µmol/kg [2, 6] was 50 to 75%, the inhibition in vivo at 1.5 µmol/kg ([2]; 5 min, 1.5 μmol/kg, 5 mn, read-out: bronchoconstriction protection, score 5 mn) was 50 to 75% and the inhibition in vivo at 0.46 µmol/kg [2, 7] was less than 20%. It also gave an inhibition in vivo at 1.5 µmol/kg ([2]; 0.25 h, 1.5 μmol/kg, 15 mn, read-out: bronchoconstriction protection, score 15 mn) of 50 to 75%, an inhibition in vivo at 0.46 µmol/kg [2, 8] of less than 20% and an inhibition in vivo at 1.5 µmol/kg ([2]; 0.5 h, 1.5 μmol/kg, 30 mn, read-out: bronchoconstriction protection, score 30 mn) of 20 to 50%.
In the case of `OCc1cc(C(O)CNC[C@H]2CC[C@H](c3ccccc3Cl)O2)ccc1O` (relative stereo) [Example 4 (trans), 2-(2'-chlorophenyl)-5-[N-[β-(3'-hydroxymethyl-4'-hydroxy-phenyl)-β-hydroxy-ethyl]-aminomethyl]-tetrahydrofuran], the Ki [1] is reported as 400 nM, the “bronchoconstriction protection” value ([2]; 0.46 μmol/kg) is reported as 10 mn and the “bronchoconstriction protection” value ([2]; 1.48 μmol/kg) is reported as greater than 25 mn. The inhibition in vivo at 0.46 µmol/kg [2, 6] was greater than 75%, the inhibition in vivo at 1.48 µmol/kg ([2]; 5 min, 1.48 μmol/kg, 5 mn, read-out: bronchoconstriction protection, score 5 mn) was greater than 75% and the inhibition in vivo at 0.46 µmol/kg [2, 7] was less than 20%. The inhibition in vivo at 1.48 µmol/kg ([2]; 0.25 h, 1.48 μmol/kg, 15 mn, read-out: bronchoconstriction protection, score 15 mn) was 50 to 75%, the inhibition in vivo at 0.46 µmol/kg [2, 8] was less than 20% and the inhibition in vivo at 1.48 µmol/kg ([2]; 0.5 h, 1.48 μmol/kg, 30 mn, read-out: bronchoconstriction protection, score 30 mn) was 50 to 75%.
For `OCc1cc(C(O)CNC[C@@H]2CC[C@H](c3cccc(Cl)c3)O2)ccc1O` (relative stereo) [Example 5 (cis), 2-(3'-chlorophenyl)-5-[N-[β-(3'-hydroxymethyl-4'-hydroxy-phenyl)-β-hydroxy-ethyl]-aminomethyl]-tetrahydrofuran], the Ki [1] was 760 nM, the “bronchoconstriction protection” value ([2]; 0.47 μmol/kg) was less than 10 mn and the inhibition in vivo at 0.47 µmol/kg ([2]; 5 min, 0.47 μmol/kg, 5 mn, read-out: bronchoconstriction protection, score 5 mn) was 20 to 50%. It also gave an inhibition in vivo at 0.47 µmol/kg ([2]; 0.25 h, 0.47 μmol/kg, 15 mn, read-out: bronchoconstriction protection, score 15 mn) of less than 20% and an inhibition in vivo at 0.47 µmol/kg ([2]; 0.5 h, 0.47 μmol/kg, 30 mn, read-out: bronchoconstriction protection, score 30 mn) of less than 20%.
In the case of `OCc1cc(C(O)CNC[C@H]2CC[C@H](c3cccc(Cl)c3)O2)ccc1O` (relative stereo) [Example 5 (trans), 2-(3'-chlorophenyl)-5-[N-[β-(3'-hydroxymethyl-4'-hydroxy-phenyl)-β-hydroxy-ethyl]-aminomethyl]-tetrahydrofuran], the Ki [1] is reported as 750 nM, the “bronchoconstriction protection” value ([2]; 0.46 μmol/kg) is reported as greater than 20 mn and the inhibition in vivo at 0.46 µmol/kg [2, 6] is reported as 50 to 75%. It also gave an inhibition in vivo at 0.46 µmol/kg [2, 7] of 20 to 50% and an inhibition in vivo at 0.46 µmol/kg [2, 8] of 20 to 50%.
For `COc1ccc([C@H]2CC[C@@H](CNCC(O)c3ccc(O)c(CO)c3)O2)cc1OC` (relative stereo) [Example 8 (cis), 2-(3',4'-dimethoxyphenyl)-5-[N-[β-(3'-hydroxymethyl-4'-hydroxy-phenyl)-β-hydroxyethyl]-aminomethyl]-tetrahydrofuran], the Ki [1] was 1100 nM, the “bronchoconstriction protection” value ([2]; 0.48 μmol/kg) was less than 30 mn and the inhibition in vivo at 0.48 µmol/kg ([2]; 5 min, 0.48 μmol/kg, 5 mn, read-out: bronchoconstriction protection, score 5 mn) was 50 to 75%. It also gave an inhibition in vivo at 0.48 µmol/kg ([2]; 0.25 h, 0.48 μmol/kg, 15 mn, read-out: bronchoconstriction protection, score 15 mn) of 20 to 50% and an inhibition in vivo at 0.48 µmol/kg ([2]; 0.5 h, 0.48 μmol/kg, 30 mn, read-out: bronchoconstriction protection, score 30 mn) of less than 20%.
With `COc1ccc([C@H]2CC[C@H](CNCC(O)c3ccc(O)c(CO)c3)O2)cc1OC` (relative stereo) [Example 8 (trans), 2-(3',4'-dimethoxyphenyl)-5-[N-[β-(3'-hydroxymethyl-4'-hydroxy-phenyl)-β-hydroxyethyl]-aminomethyl]-tetrahydrofuran] the Ki [1] was 1050 nM, the “bronchoconstriction protection” value ([2]; 0.13 μmol/kg) was 30 mn and the “bronchoconstriction protection” value ([2]; 0.46 μmol/kg) was greater than 30 mn. It also gave an inhibition in vivo at 0.13 µmol/kg [2, 3] of 50 to 75%, an inhibition in vivo at 0.46 µmol/kg [2, 6] of 50 to 75% and an inhibition in vivo at 0.13 µmol/kg [2, 4] of 20 to 50%. It also gave an inhibition in vivo at 0.46 µmol/kg [2, 7] of 50 to 75%, an inhibition in vivo at 0.13 µmol/kg [2, 5] of 20 to 50% and an inhibition in vivo at 0.46 µmol/kg [2, 8] of 20 to 50%.
With `COc1ccc([C@H]2CC[C@@H](CNCC(O)c3ccc(O)c(CO)c3)O2)cc1` (relative stereo) [Example 9 (cis), 2-(4'-methoxyphenyl)-5-[N-[β-(3'-hydroxymethyl-4'-hydroxy-phenyl)-β-hydroxy-ethyl]-aminomethyl]-tetrahydrofuran] the Ki [1] was 810 nM, the “bronchoconstriction protection” value ([2]; 0.46 μmol/kg) was 20 mn and the inhibition in vivo at 0.46 µmol/kg [2, 6] was 50 to 75%. The inhibition in vivo at 0.46 µmol/kg [2, 7] was 20 to 50% and the inhibition in vivo at 0.46 µmol/kg [2, 8] was less than 20%.
For `COc1ccc([C@H]2CC[C@H](CNCC(O)c3ccc(O)c(CO)c3)O2)cc1` (relative stereo) [Example 9 (trans), 2-(4'-methoxyphenyl)-5-[N-[β-(3'-hydroxymethyl-4'-hydroxy-phenyl)-β-hydroxy-ethyl]-aminomethyl]-tetrahydrofuran], the Ki [1] was 590 nM, the “bronchoconstriction protection” value ([2]; 0.46 μmol/kg) was greater than 30 mn and the inhibition in vivo at 0.46 µmol/kg [2, 6] was greater than 75%. It also gave an inhibition in vivo at 0.46 µmol/kg [2, 7] of 50 to 75% and an inhibition in vivo at 0.46 µmol/kg [2, 8] of 20 to 50%.
`COc1cc([C@H]2CC[C@@H](CCCNCC(O)c3ccc(O)c(CO)c3)O2)cc(OC)c1OC` (relative stereo) [Example 15 (cis), 2-(3',4',5'-trimethoxyphenyl)-5-[-N-[β-(3'-hydroxymethyl-4'-hydroxy-phenyl)-β-hydroxy-ethyl]-aminopropyl]-tetrahydrofuran] showed a Ki [1] of 1900 nM.
`COc1cc(C2CCC(CNCC(O)c3ccc(O)c(CO)c3)O2)cc(OC)c1OC` (single isomer, unassigned) [Example 2 (trans) (+), 2-(3',4',5'-trimethoxyphenyl)-5-[N-[β-(3'-hydroxymethyl-4'-hydroxy-phenyl)-β-hydroxy-ethyl]-aminomethyl]-tetrahydrofuran] was tested, and the Ki [1] was 50 nM.
With `COc1cc(C2CCC(CNCC(O)c3ccc(O)c(CO)c3)O2)cc(OC)c1OC` (single isomer, unassigned) [Example 2 (trans) (-), 2-(3',4',5'-trimethoxyphenyl)-5-[N-[β-(3'-hydroxymethyl-4'-hydroxy-phenyl)-β-hydroxy-ethyl]-aminomethyl]-tetrahydrofuran] the Ki [1] was 350 nM.
With `CCCC1CCC(CNCC(O)c2ccc(O)c(CO)c2)O1` (stereo not drawn) [Example 11, 2-propyl-5-[N-[β-(3'-hydroxymethyl-4'-hydroxy-phenyl)-β-hydroxy-ethyl]-aminomethyl]-tetrahydrofuran] the Ki [1] was 520 nM.
